Reference: patent US20240208992A1, “MACROCYCLES AS CFTR MODULATORS” (Idorsia Pharmaceuticals Ltd, priority 2021, published 2024)

Molecular target: human F508del-CFTR (Homo sapiens, UniProt P13569, DEL508-508)
Test: F508del-CFTR cell surface expression (corrector activity), DiscoveRx ß-galactosidase complementation chemiluminescence assay in recombinant U2OS cell line;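 further: U2OS cells co-expressing ProLink-tagged F508del-CFTR and a membrane-anchored enzyme acceptor, where more surface CFTR restores β-galactosidase activity measured by chemiluminescence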
Details: U2OS cells, 16h compound incubation; for EC50: EC50, F508del-CFTR cell surface expression, geomean of several measurements; for Emax: U2OS, in relation to the Emax of the corrector lumacaftor (=100%), arithmetic mean

Chain of human F508del-CFTR (P13569 with tags, fused parts or gaps DEL508-508): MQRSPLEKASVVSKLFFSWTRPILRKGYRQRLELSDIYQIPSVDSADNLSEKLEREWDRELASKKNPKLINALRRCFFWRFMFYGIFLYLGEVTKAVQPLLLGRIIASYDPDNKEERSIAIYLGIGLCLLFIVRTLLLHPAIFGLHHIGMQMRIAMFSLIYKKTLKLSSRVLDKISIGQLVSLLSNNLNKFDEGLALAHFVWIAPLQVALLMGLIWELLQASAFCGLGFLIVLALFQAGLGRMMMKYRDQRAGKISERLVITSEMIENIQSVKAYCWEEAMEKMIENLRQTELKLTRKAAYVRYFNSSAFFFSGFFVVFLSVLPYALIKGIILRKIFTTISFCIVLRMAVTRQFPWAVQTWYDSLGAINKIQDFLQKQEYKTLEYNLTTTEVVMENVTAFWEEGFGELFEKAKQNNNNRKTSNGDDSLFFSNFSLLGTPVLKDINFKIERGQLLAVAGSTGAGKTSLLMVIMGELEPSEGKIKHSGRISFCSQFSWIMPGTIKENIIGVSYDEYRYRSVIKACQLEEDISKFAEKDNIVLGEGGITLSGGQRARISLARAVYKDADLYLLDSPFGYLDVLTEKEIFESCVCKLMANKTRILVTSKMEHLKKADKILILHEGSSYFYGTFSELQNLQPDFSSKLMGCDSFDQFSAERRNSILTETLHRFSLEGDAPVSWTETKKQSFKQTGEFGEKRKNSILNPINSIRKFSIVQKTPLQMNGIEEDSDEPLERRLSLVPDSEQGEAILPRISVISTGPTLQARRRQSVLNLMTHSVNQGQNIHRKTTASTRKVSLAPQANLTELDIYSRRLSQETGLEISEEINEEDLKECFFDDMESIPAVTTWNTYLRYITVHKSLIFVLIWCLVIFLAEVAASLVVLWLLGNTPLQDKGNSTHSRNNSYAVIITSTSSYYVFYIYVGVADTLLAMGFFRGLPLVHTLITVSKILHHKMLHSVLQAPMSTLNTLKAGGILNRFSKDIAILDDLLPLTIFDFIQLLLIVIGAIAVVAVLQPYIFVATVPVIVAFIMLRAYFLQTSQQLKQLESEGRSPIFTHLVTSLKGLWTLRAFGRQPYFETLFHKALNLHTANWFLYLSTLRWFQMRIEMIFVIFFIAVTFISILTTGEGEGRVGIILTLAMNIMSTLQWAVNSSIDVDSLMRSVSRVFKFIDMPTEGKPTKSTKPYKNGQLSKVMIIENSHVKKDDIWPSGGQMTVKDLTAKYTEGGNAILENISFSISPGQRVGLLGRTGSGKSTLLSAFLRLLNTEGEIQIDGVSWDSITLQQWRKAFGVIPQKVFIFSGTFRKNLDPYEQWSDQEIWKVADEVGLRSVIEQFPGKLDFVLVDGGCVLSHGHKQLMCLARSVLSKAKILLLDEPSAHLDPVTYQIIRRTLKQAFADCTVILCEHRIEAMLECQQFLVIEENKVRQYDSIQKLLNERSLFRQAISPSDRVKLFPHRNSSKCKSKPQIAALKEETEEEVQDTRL

Row | Compound | EC50 [nM] | Emax [%]
1 | COc1noc(CCNC(=O)[C@@H]2CC(=O)N(C)[C@@H](CC(C)C)C(=O)N(C)C3(CC3)C(=O)N[C@H](Cc3ccccc3)COc3ccc4ncc(F)cc4c3C(=O)N2)c1F [Example 963, (3′S,7′S,13′R)-13′-benzyl-20′-fluoro-N-(2-(4-fluoro-3-methoxyisoxazol-5-yl)ethyl)-7′-isobutyl-6′,9′-dimethyl-1′,5′,8′,11′-tetraoxo-2′,3′,4′,5′,6′,7′,8′,9′,11′,12′,13′,14′-dodecahydro-1′H-spiro[cyclopropane-1,10′-[1]oxa[4,7,10,14]tetraazacycloheptadecino[16,17-f]quinoline]-3′-carboxamide] | 267 | 447
2 | COc1noc(CCNC(=O)[C@@H]2CC(=O)N(C)[C@@H](CC(C)C)C(=O)N(C)[C@H](CC(F)F)C(=O)N[C@H](Cc3ccccc3)COc3cc(C)nc(OC)c3C(=O)N2)c1F [Example 968, (3R,6R,9S,13S)-3-benzyl-6-(2,2-difluoroethyl)-N-(2-(4-fluoro-3-methoxyisoxazol-5-yl)ethyl)-9-isobutyl-16-methoxy-7,10,18-trimethyl-5,8,11,15-tetraoxo-2,3,4,5,6,7,8,9,10,11,12,13,14,15-tetradecahydropyrido[3,4-p][1]oxa[4,7,10,14]tetraazacycloheptadecine-13-carboxamide] | 226 | 478
3 | COc1noc(CCNC(=O)[C@@H]2CC(=O)N(C)[C@@H](CC(C)C)C(=O)N(C)C3(CC(F)(F)C3)C(=O)N[C@H](Cc3ccccc3)COc3ccc4ncc(F)cc4c3C(=O)N2)c1F [Example 969, (3′S,7′S,13′R)-13′-benzyl-3,3,20′-trifluoro-N-(2-(4-fluoro-3-methoxyisoxazol-5-yl)ethyl)-7′-isobutyl-6′,9′-dimethyl-1′,5′,8′,11′-tetraoxo-2′,3′,4′,5′,6′,7′,8′,9′,11′,12′,13′,14′-dodecahydro-1′H-spiro[cyclobutane-1,10′-[1]oxa[4,7,10,14]tetraazacycloheptadecino[16,17-f]quinoline]-3′-carboxamide] | 142 | 452
4 | COc1noc(CCNC(=O)[C@@H]2CC(=O)N(C)[C@@H](CC(C)C)C(=O)N(C)[C@H](CC(F)F)C(=O)N[C@H](Cc3ccccc3)COc3ccc4cnc(C)cc4c3C(=O)N2)c1F [Example 970, (3S,7S,10R,13R)-13-benzyl-10-(2,2-difluoroethyl)-N-(2-(4-fluoro-3-methoxyisoxazol-5-yl)ethyl)-7-isobutyl-6,9,20-trimethyl-1,5,8,11-tetraoxo-1,2,3,4,5,6,7,8,9,10,11,12,13,14-tetradecahydro-[1]oxa[4,7,10,14]tetraazacycloheptadecino[16,17-f]isoquinoline-3-carboxamide] | 109 | 463
5 | COc1noc(CCNC(=O)[C@@H]2CC(=O)N(C)[C@@H](CC(C)C)C(=O)N(C)[C@H](Cc3noc(C(C)(C)C)n3)C(=O)N[C@H](Cc3ccccc3)COc3ccc4ncc(F)cc4c3C(=O)N2)n1 [Example 971, (3S,7S,10R,13R)-13-benzyl-10-((5-(tert-butyl)-1,2,4-oxadiazol-3-yl)methyl)-20-fluoro-7-isobutyl-N-(2-(3-methoxy-1,2,4-oxadiazol-5-yl)ethyl)-6,9-dimethyl-1,5,8,11-tetraoxo-1,2,3,4,5,6,7,8,9,10,11,12,13,14-tetradecahydro-[1]oxa[4,7,10,14]tetraazacycloheptadecino[16,17-f]quinoline-3-carboxamide] | 163 | 482
6 | COc1cc(CCNC(=O)[C@@H]2CC(=O)N(C)[C@@H](CC(C)C)C(=O)N(C)[C@H](Cc3noc(C(C)(C)C)n3)C(=O)N[C@H](Cc3ccccc3)COc3ccc4ncc(F)cc4c3C(=O)N2)on1 [Example 972, (3S,7S,10R,13R)-13-benzyl-10-((5-(tert-butyl)-1,2,4-oxadiazol-3-yl)methyl)-20-fluoro-7-isobutyl-N-(2-(3-methoxyisoxazol-5-yl)ethyl)-6,9-dimethyl-1,5,8,11-tetraoxo-1,2,3,4,5,6,7,8,9,10,11,12,13,14-tetradecahydro-[1]oxa[4,7,10,14]tetraazacycloheptadecino[16,17-f]quinoline-3-carboxamide] | 128 | 436
7 | COc1noc(CCNC(=O)[C@@H]2CC(=O)N(C)[C@@H](CC(C)C)C(=O)N3CCCC[C@@H]3C(=O)N[C@H](Cc3ccccc3)COc3ccc4ncc(F)cc4c3C(=O)N2)c1F [Example 973, (9S,13S,19aR,22R)-22-benzyl-5-fluoro-N-(2-(4-fluoro-3-methoxyisoxazol-5-yl)ethyl)-13-isobutyl-12-methyl-7,11,14,20-tetraoxo-7,8,9,10,11,12,13,14,17,18,19,19a,20,21,22,23-hexadecahydro-16H-pyrido[2′,1′:6,7][1]oxa[4,7,10,14]tetraazacycloheptadecino[16,17-f]quinoline-9-carboxamide] | 117 | 446
8 | COc1noc(CCNC(=O)[C@@H]2CC(=O)N(C)[C@@H](CC(C)C)C(=O)N(C)[C@H](CC(F)(F)F)C(=O)N[C@H](Cc3ccccc3)COc3cc(C)c4ncccc4c3C(=O)N2)n1 [Example 975, (3S,7S,10R,13R)-13-benzyl-7-isobutyl-N-(2-(3-methoxy-1,2,4-oxadiazol-5-yl)ethyl)-6,9,17-trimethyl-1,5,8,11-tetraoxo-10-(2,2,2-trifluoroethyl)-1,2,3,4,5,6,7,8,9,10,11,12,13,14-tetradecahydro-[1]oxa[4,7,10,14]tetraazacycloheptadecino[16,17-f]quinoline-3-carboxamide] | 119 | 497
9 | CCOCC[C@@H]1C(=O)N[C@H](Cc2ccccc2)COc2ccc3ncc(F)cc3c2C(=O)N[C@H](C(=O)NCCc2nc(C3CC3)no2)CC(=O)N(C)[C@@H](CC(C)C)C(=O)N1C [Example 976, (3S,7S,10R,13R)-13-Benzyl-N-(2-(3-cyclopropyl-1,2,4-oxadiazol-5-yl)ethyl)-10-(2-ethoxyethyl)-20-fluoro-7-isobutyl-6,9-dimethyl-1,5,8,11-tetraoxo-1,2,3,4,5,6,7,8,9,10,11,12,13,14-tetradecahydro-[1]oxa[4,7,10,14]tetraazacycloheptadecino[16,17-f]quinoline-3-carboxamide] | 179 | 348
10 | COc1cc(CCNC(=O)[C@@H]2CC(=O)N(C)[C@@H](CC(C)C)C(=O)N(C)[C@H](CCOc3cnc(C)cn3)C(=O)N[C@H](Cc3ccccc3)COc3cc(C)nc(OC)c3C(=O)N2)on1 [Example 977, (3R,6R,9S,13S)-3-benzyl-9-isobutyl-16-methoxy-N-(2-(3-methoxyisoxazol-5-yl)ethyl)-7,10,18-trimethyl-6-(2-((5-methylpyrazin-2-yl)oxy)ethyl)-5,8,11,15-tetraoxo-2,3,4,5,6,7,8,9,10,11,12,13,14,15-tetradecahydropyrido[3,4-p][1]oxa[4,7,10,14]tetraazacycloheptadecine-13-carboxamide] | 281 | 410

Now those with a lower EC50, led by results:

Row | EC50 [nM] | Emax [%] | Compound
11 | 92 | 472 | COc1noc(CCNC(=O)[C@@H]2CC(=O)N(C)[C@@H](CC(C)C)C(=O)N(C)[C@H](CC(F)F)C(=O)N[C@H](Cc3ccccc3)COc3ccc4ncc(F)cc4c3C(=O)N2)c1F [Example 967, (3S,7S,10R,13R)-13-benzyl-10-(2,2-difluoroethyl)-20-fluoro-N-(2-(4-fluoro-3-methoxyisoxazol-5-yl)ethyl)-7-isobutyl-6,9-dimethyl-1,5,8,11-tetraoxo-1,2,3,4,5,6,7,8,9,10,11,12,13,14-tetradecahydro-[1]oxa[4,7,10,14]tetraazacycloheptadecino[16,17-f]quinoline-3-carboxamide]
12 | 82 | 404 | CC(C)C[C@H]1C(=O)N(C)[C@H](Cc2nc(C(F)(F)F)no2)C(=O)N[C@H](Cc2ccccc2)COc2ccc3ncc(F)cc3c2C(=O)N[C@H](C(=O)NC[C@@H](O)c2nc(C3CC3)no2)CC(=O)N1C [Example 966, (3S,7S,10R,13R)-13-benzyl-N-((R)-2-(3-cyclopropyl-1,2,4-oxadiazol-5-yl)-2-hydroxyethyl)-20-fluoro-7-isobutyl-6,9-dimethyl-1,5,8,11-tetraoxo-10-((3-(trifluoromethyl)-1,2,4-oxadiazol-5-yl)methyl)-1,2,3,4,5,6,7,8,9,10,11,12,13,14-tetradecahydro-[1]oxa[4,7,10,14]tetraazacycloheptadecino[16,17-f]quinoline-3-carboxamide]
13 | 32 | 453 | Cc1cc(CCNC(=O)[C@@H]2CC(=O)N(C)[C@@H](CC(C)C)C(=O)N(C)[C@H](Cc3nc(C(F)(F)F)no3)C(=O)N[C@H](Cc3ccccc3)COc3ccc4ncc(F)cc4c3C(=O)N2)on1 [Example 965, (3S,7S,10R,13R)-13-benzyl-20-fluoro-7-isobutyl-6,9-dimethyl-N-(2-(3-methylisoxazol-5-yl)ethyl)-1,5,8,11-tetraoxo-10-((3-(trifluoromethyl)-1,2,4-oxadiazol-5-yl)methyl)-1,2,3,4,5,6,7,8,9,10,11,12,13,14-tetradecahydro-[1]oxa[4,7,10,14]tetraazacycloheptadecino[16,17-f]quinoline-3-carboxamide]
14 | 21 | 418 | CC(C)C[C@H]1C(=O)N(C)[C@H](Cc2nc(C(F)(F)F)no2)C(=O)N[C@H](Cc2ccccc2)COc2ccc3ncc(F)cc3c2C(=O)N[C@H](C(=O)NCCc2nc(C3CC3)no2)CC(=O)N1C [Example 964, (3S,7S,10R,13R)-13-benzyl-N-(2-(3-cyclopropyl-1,2,4-oxadiazol-5-yl)ethyl)-20-fluoro-7-isobutyl-6,9-dimethyl-1,5,8,11-tetraoxo-10-((3-(trifluoromethyl)-1,2,4-oxadiazol-5-yl)methyl)-1,2,3,4,5,6,7,8,9,10,11,12,13,14-tetradecahydro-[1]oxa[4,7,10,14]tetraazacycloheptadecino[16,17-f]quinoline-3-carboxamide]
